Laboratory results from US11053235B2, “Substituted 1,4-dihydropyrimidines for the treatment of HBV infection or HBV-induced diseases” (Janssen Sciences Ireland Unlimited Company, priority 2018, dated 2021).

Columns and labels:
HBV = test: Anti-viral assay in HepG2.2.15 cells: HBV inhibitory activity (HBV DNA in culture medium by q-PCR); assay type: cell-based; details: Hepatitis B virus, HepG2.2.15, 144 h, HepG2.2.15 cells, 6 days treatment, HBV DNA in culture medium by q-PCR, highest concentration 10 uM; read-out: EC50
Outline: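 HBV DNA released into the medium was measured by q-PCR after 6-day compound exposure of HepG2.2.15 cells (40,000/well, 2% FBS, one mid-course medium change). Eight 3-fold dilutions, highest 10 uM; EC50 derived by curve fitting.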

[1] = Cytotoxicity determination in HepG2.2.15 cells (CCK-8); assay type: cell-based; details: human, 6 days treatment, CCK-8, highest concentration 100 uM
Outline: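 CC50 derived from CCK-8 absorbance (450 nm, 630 nm reference) after 2.5 h incubation at 37 °C. Before that, HepG2.2.15 cells (5,000/well, 2% FBS) received an 8-point, 3-fold compound series topping at 100 uM for 6 days, with one mid-treatment medium change.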

SMILES | EC50 (HBV) [µM] | CC50 at 6 days [1] [µM]
COC(=O)C1=C(C2CCN(C(=O)c3cnn(C)c3)CC2)NC(c2nccs2)=NC1c1ccc(F)cc1Cl (single isomer, unassigned) [II-12-B, Methyl 4-(2-chloro-4-fluorophenyl)-6-(1-(1-methyl-1H-pyrazole-4-carbonyl)piperidin-4-yl)-2-(thiazol-2-yl)-1,4-dihydropyrimidine-5-carboxylate] | 0.066 | 25.5
COC(=O)C1=C(C2CCN(c3nccc(CC(=O)O)n3)CC2)NC(c2nccs2)=NC1c1ccc(F)cc1Cl (single isomer, unassigned) [II-13-A, 2-(2-(4-(6-(2-chloro-4-fluorophenyl)-5-(methoxycarbonyl)-2-(thiazol-2-yl)-3,6-dihydropyrimidin-4-yl)piperidin-1-yl)pyrimidin-4-yl)acetate] | 0.19 | 24.4
COC(=O)C1=C(C2CCN(c3ncc(C)c(C(=O)O)n3)CC2)NC(c2nccs2)=NC1c1ccc(F)cc1Cl (single isomer, unassigned) [II-14-A, 2-(4-(6-(2-Chloro-4-fluorophenyl)-5-(methoxycarbonyl)-2-(thiazol-2-yl)-3,6-dihydropyrimidin-4-yl)piperidin-1-yl)-5-methylpyrimidine-4-carboxylic Acid] | 0.0081 | 32.1
COC(=O)C1=C(C2CCN(c3ncc(CC(=O)O)cn3)CC2)NC(c2nccs2)=NC1c1ccc(F)cc1Cl (single isomer, unassigned) [II-15-A, 2-(2-(4-(6-(2-Chloro-4-fluorophenyl)-5-(methoxycarbonyl)-2-(thiazol-2-yl)-3,6-dihydropyrimidin-4-yl)piperidin-1-yl)pyrimidin-5-yl)acetic Acid] | 0.0055 | 14
COC(=O)C1=C(C2CCN(c3ncc(C(=O)O)c(C)n3)CC2)NC(c2nccs2)=NC1c1ccc(F)cc1Cl (single isomer, unassigned) [II-16-B, 2-(4-(6-(2-Chloro-4-fluorophenyl)-5-(methoxycarbonyl)-2-(thiazol-2-yl)-3,6-dihydropyrimidin-4-yl)piperidin-1-yl)-4-methylpyrimidine-5-carboxylic Acid] | 0.0069 | 7.48
COC(=O)C1=C(C2CCN(c3ncc(C(=O)O)cn3)CC2)NC(c2nccs2)=NC1c1ccc(F)cc1Cl (single isomer, unassigned) [II-17-B, 2-(4-(6-(2-chloro-4-fluorophenyl)-5-(methoxycarbonyl)-2-(thiazol-2-yl)-3,6-dihydropyrimidin-4-yl)piperidin-1-yl)pyrimidine-5-carboxylic Acid] | 0.014 | > 100
COC(=O)C1=C(C2CCN(c3nc(C(=O)O)co3)CC2)NC(c2nccs2)=NC1c1ccc(F)cc1Cl (single isomer, unassigned) [II-18-B, 2-(4-(6-(2-Chloro-4-fluorophenyl)-5-(methoxycarbonyl)-2-(thiazol-2-yl)-3,6-dihydropyrimidin-4-yl)piperidin-1-yl)oxazole-4-carboxylic Acid] | 0.089 | 70
COC(=O)C1=C(C2CCN(c3ncc(C(=O)O)s3)CC2)NC(c2nccs2)=NC1c1ccc(F)cc1Cl (single isomer, unassigned) [II-19-A, 2-(4-(6-(2-Chloro-4-fluorophenyl)-5-(methoxycarbonyl)-2-(thiazol-2-yl)-3,6-dihydropyrimidin-4-yl)piperidin-1-yl)thiazole-5-carboxylic Acid] | 0.0064 | 19.3
CCOC(=O)C1=C(C2CCN(c3ncc(C)c(C(=O)O)n3)CC2)NC(c2nccs2)=NC1c1ccc(F)cc1Cl (single isomer, unassigned) [II-20-B, 2-(4-(6-(2-Chloro-4-fluorophenyl)-5-(ethoxycarbonyl)-2-(thiazol-2-yl)-3,6-dihydropyrimidin-4-yl)piperidin-1-yl)-5-methylpyrimidine-4-carboxylic Acid] | 0.015 | 16.8
CCOC(=O)C1=C(C2CCN(c3ncc(CC(=O)O)cn3)CC2)NC(c2nccs2)=NC1c1ccc(F)cc1Cl (single isomer, unassigned) [II-21-B, 2-(2-(4-(6-(2-Chloro-4-fluorophenyl)-5-(ethoxycarbonyl)-2-(thiazol-2-yl)-3,6-dihydropyrimidin-4-yl)piperidin-1-yl)pyrimidin-5-yl)acetic Acid] | 0.0062 | 7.11
CCOC(=O)C1=C(C2CCN(c3ncc(C)c(C(=O)O)n3)CC2)NC(c2nccs2)=NC1c1cccc(F)c1Cl (single isomer, unassigned) [II-22-B, 2-(4-(6-(2-Chloro-3-fluorophenyl)-5-(ethoxycarbonyl)-2-(thiazol-2-yl)-3,6-dihydropyrimidin-4-yl)piperidin-1-yl)-5-methylpyrimidine-4-carboxylic Acid] | 0.015 | 11.2
CCOC(=O)C1=C(C2CCN(c3ncc(CC(=O)O)cn3)CC2)NC(c2nccs2)=NC1c1cccc(F)c1Cl (single isomer, unassigned) [II-23-B, 2-(2-(4-(6-(2-Chloro-3-fluorophenyl)-5-(ethoxycarbonyl)-2-(thiazol-2-yl)-3,6-dihydropyrimidin-4-yl)piperidin-1-yl)pyrimidin-5-yl)acetic Acid] | < 0.0046 | 3.88
COC(=O)C1=C(C2CCN(c3ncc([C@]4(O)C[C@@H](C(=O)O)C4)cn3)CC2)NC(c2nccs2)=NC1c1ccc(F)c(F)c1Cl (single isomer, unassigned) [II-24-B, (cis)-3-(2-(4-(6-(2-chloro-3,4-difluorophenyl)-5-(methoxycarbonyl)-2-(thiazol-2-yl)-3,6-dihydropyrimidin-4-yl)piperidin-1-yl)pyrimidin-5-yl)-3-hydroxycyclobutanecarboxylic Acid] | < 0.0046 | 11
COC(=O)C1=C(C2CCN(c3ncc(C(=O)O)o3)CC2)NC(c2nccs2)=NC1c1ccc(F)c(F)c1Cl (single isomer, unassigned) [II-25-B, 2-(4-(6-(2-Chloro-3,4-difluorophenyl)-5-(methoxycarbonyl)-2-(thiazol-2-yl)-3,6-dihydropyrimidin-4-yl)piperidin-1-yl)oxazole-5-carboxylic Acid] | 0.054 | 18.1
COC(=O)C1=C(C2CCN(c3ncc(Cl)c(C(=O)O)n3)CC2)NC(c2nccs2)=NC1c1ccc(F)c(F)c1Cl (single isomer, unassigned) [II-26-B, 5-Chloro-2-(4-(6-(2-chloro-3,4-difluorophenyl)-5-(methoxycarbonyl)-2-(thiazol-2-yl)-3,6-dihydropyrimidin-4-yl)piperidin-1-yl)pyrimidine-4-carboxylic Acid] | 0.045 | 11.1
COC(=O)C1=C(C2CCN(c3ncc(C)c(C(=O)O)n3)CC2)NC(c2nccs2)=NC1c1ccc(F)c(F)c1Cl (single isomer, unassigned) [II-27-B, 2-(4-(6-(2-Chloro-3,4-difluorophenyl)-5-(methoxycarbonyl)-2-(thiazol-2-yl)-3,6-dihydropyrimidin-4-yl)piperidin-1-yl)-5-methylpyrimidine-4-carboxylic Acid] | 0.0055 | 20.2
COC(=O)C1=C(C2CCN(c3ncc(CC(=O)O)c(C)n3)CC2)NC(c2nccs2)=NC1c1ccc(F)c(F)c1Cl (single isomer, unassigned) [II-28-B, 2-(2-(4-(6-(2-Chloro-3,4-difluorophenyl)-5-(methoxycarbonyl)-2-(thiazol-2-yl)-3,6-dihydropyrimidin-4-yl)piperidin-1-yl)-4-methylpyrimidin-5-yl)acetic Acid] | < 0.0046 | 5.33
COC(=O)C1=C(C2CCN(c3ncc(CC(=O)O)cn3)CC2)NC(c2nccs2)=NC1c1ccc(F)c(F)c1Cl (single isomer, unassigned) [II-29-B, 2-(2-(4-(6-(2-Chloro-3,4-difluorophenyl)-5-(methoxycarbonyl)-2-(thiazol-2-yl)-3,6-dihydropyrimidin-4-yl)piperidin-1-yl)pyrimidin-5-yl)acetic Acid] | < 0.0046 | 9.46
COC(=O)C1=C(C2CCN(c3ncc(C(=O)O)s3)CC2)NC(c2nccs2)=NC1c1ccc(F)c(F)c1Cl (single isomer, unassigned) [II-30-B, 2-(4-(6-(2-Chloro-3,4-difluorophenyl)-5-(methoxycarbonyl)-2-(thiazol-2-yl)-3,6-dihydropyrimidin-4-yl)piperidin-1-yl)thiazole-5-carboxylic Acid] | 0.0072 | 16
COC(=O)C1=C(C2CCN(c3nc(C(F)(F)F)c(C(=O)O)s3)CC2)NC(c2nccs2)=NC1c1ccc(F)c(F)c1Cl (single isomer, unassigned) [II-31-B, 2-(4-(6-(2-Chloro-3,4-difluorophenyl)-5-(methoxycarbonyl)-2-(thiazol-2-yl)-3,6-dihydropyrimidin-4-yl)piperidin-1-yl)-4-(trifluoromethyl)thiazole-5-carboxylic Acid] | 0.025 | 2.61
COC(=O)C1=C(C2CCN(c3nc(C(=O)O)cs3)CC2)NC(c2nccs2)=NC1c1ccc(F)c(F)c1Cl (single isomer, unassigned) [II-32-B, 2-(4-(6-(2-Chloro-3,4-difluorophenyl)-5-(methoxycarbonyl)-2-(thiazol-2-yl)-3,6-dihydropyrimidin-4-yl)piperidin-1-yl)thiazole-4-carboxylic Acid] | 0.046 | 11.1
COC(=O)C1=C(C2CCN(c3nc(C(=O)O)co3)CC2)NC(c2nccs2)=NC1c1ccc(F)c(F)c1Cl (single isomer, unassigned) [II-33-B, 2-(4-(6-(2-Chloro-3,4-difluorophenyl)-5-(methoxycarbonyl)-2-(thiazol-2-yl)-3,6-dihydropyrimidin-4-yl)piperidin-1-yl)oxazole-4-carboxylic Acid] | 0.045 | 18.6
